Data reported in US12503473B2, “Triazolopyrimidine compounds and their use in treating cancer” (Dizal (Jiangsu) Pharmaceutical Co., Ltd., priority 2018, dated 2025).

Legend:
MCT4 [1] = molecular target: T1, MCT4 (Homo sapiens, UniProt O15427); experiment: Assay (a): lactate efflux from SK-Br-3 cells (lactate in media, 4 h); assay type: cell-based; design: a natively glycolytic human breast adenocarcinoma line predominantly expressing MCT4; host or cells: SK-Br-3; details: mean of at least three repeats (Example 32, marked *, two repeats), read-out: MCT4 lactate efflux pIC50 (SKBR3) (converted)
T1 sequence (O15427 1-465): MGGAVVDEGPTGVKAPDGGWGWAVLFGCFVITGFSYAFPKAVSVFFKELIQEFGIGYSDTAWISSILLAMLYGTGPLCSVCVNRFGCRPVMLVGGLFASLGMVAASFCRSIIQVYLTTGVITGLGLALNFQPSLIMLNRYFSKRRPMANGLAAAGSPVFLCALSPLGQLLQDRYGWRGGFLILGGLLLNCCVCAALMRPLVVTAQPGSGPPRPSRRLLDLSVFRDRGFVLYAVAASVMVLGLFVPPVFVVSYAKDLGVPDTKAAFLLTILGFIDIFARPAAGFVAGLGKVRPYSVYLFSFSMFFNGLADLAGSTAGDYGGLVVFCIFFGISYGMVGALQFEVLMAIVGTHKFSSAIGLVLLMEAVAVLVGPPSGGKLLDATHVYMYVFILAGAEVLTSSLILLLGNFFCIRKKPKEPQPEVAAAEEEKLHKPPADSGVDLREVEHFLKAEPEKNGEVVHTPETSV
Description: Assay plates were lidded and incubated for 4 hours at 37° C. and 5% CO2.

MCT1 = molecular target: T2, MCT1 (Homo sapiens, UniProt P53985); experiment: Assay (c): FLIPR BCECF lactate influx in K562 cells; assay type: cell-based; details: mean of at least three repeats, read-out: MCT1 FLIPR pIC50 (K562) (converted)
T2 construct: a human erythroleukemia line predominantly expressing MCT1, a small amount of MCT2 and no MCT4; host or cells: K562
T2 sequence (P53985 1-500): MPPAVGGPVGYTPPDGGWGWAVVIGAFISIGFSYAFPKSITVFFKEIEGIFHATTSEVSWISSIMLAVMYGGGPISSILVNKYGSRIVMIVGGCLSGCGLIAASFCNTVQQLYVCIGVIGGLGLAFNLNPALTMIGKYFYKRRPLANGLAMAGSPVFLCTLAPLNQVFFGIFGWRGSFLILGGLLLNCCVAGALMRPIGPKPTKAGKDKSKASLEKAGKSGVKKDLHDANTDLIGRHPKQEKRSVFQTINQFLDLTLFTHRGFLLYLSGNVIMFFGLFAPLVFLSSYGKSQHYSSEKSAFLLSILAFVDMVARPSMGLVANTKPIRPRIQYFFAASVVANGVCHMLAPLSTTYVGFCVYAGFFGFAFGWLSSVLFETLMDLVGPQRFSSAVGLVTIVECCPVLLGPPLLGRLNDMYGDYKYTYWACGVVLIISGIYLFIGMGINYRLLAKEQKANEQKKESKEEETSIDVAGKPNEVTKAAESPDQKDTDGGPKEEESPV
Description: (§1) Cells were loaded with the pH sensitive dye BCECFAM(Invitrogen #B11150) before being washed to remove excess dye and seeded into the assay plates—directly onto the test compound—at a density of 15,000 cells/well (NCI—H358) or 30,000 cells/well (K562), in 30 μl HBSS with 1 mM [final] […] Assay plates were lidded and spun in a plate centrifuge at 170 g for 1 minute. Plates were then wrapped in foil and incubated in the dark for 1 hour at room temperature.
(§2) Following incubation with test compound, 10 μl of 25 mM Sodium-L-Lactate (Sigma #L7022) made up in HBSS with 1 mM [final] […] This addition was performed directly on the FLIPR Tetra platform (Molecular Devices) as part of a real-time kinetic read protocol. […] A percentage change from base-line was calculated for each test well and values normalised to control wells—treated with either DMSO (maximum assay signal) or chemistry related to that described in this patent (minimum assay signal)—before fitting concentration response curves to determine an IC50 value.

MCT4 [2] = molecular target: T1, MCT4; experiment: cell-based
Description: as §1, §2

Row | IC50 (MCT4 [1]) [µM] | IC50 (MCT1) [µM] | IC50 (MCT4 [2]) [µM] | SMILES
1 | 0.000794 | > 25.1 |  | Cc1nc2nc(C)c(C[C@@H]3CCN(c4cnc(-c5ccc(CN6CCN(CCO)CC6)cc5)cn4)C3)c(C)n2n1 [Example 41, 2-{4-[4-(5-{(3R)-3-[(2,5,7-trimethyl[1,2,4]triazolo[1,5-a]pyrimidin-6-yl)methyl]pyrrolidin-1-yl}pyrazin-2-yl)benzyl]piperazin-1-yl}ethanol]
2 |  | > 15.8 |  | Cc1nc2nc(C)c(C[C@@H]3CCN(c4ccc(-c5ccc(CN6CCOCC6)nn5)cc4)C3)c(C)n2n1 [Example 29, (R)-4-((6-(4-(3-((2,5,7-trimethyl-[1,2,4]triazolo[1,5-a]pyrimidin-6-yl)methyl)pyrrolidin-1-yl)phenyl)pyridazin-3-yl)methyl)morpholine]
3 | 0.000631 | > 25.1 | 0.0126 | CC(=O)N1CCN(Cc2ccc(-c3cnc(N4CC[C@@H](Cc5c(C)nc6nc(C)nn6c5C)C4)cn3)cc2)CC1 [Example 58, (R)-1-(4-(4-(5-(3-((2,5,7-trimethyl-[1,2,4]triazolo[1,5-a]pyrimidin-6-yl)methyl)pyrrolidin-1-yl)pyrazin-2-yl)benzyl)piperazin-1-yl)ethanone]
4 | 0.002 | > 25.1 |  | Cc1nc2nc(C)c(O[C@@H]3CCN(c4cnc(-c5ccc(CN6CCN(C)CC6)cc5)nc4)C3)c(C)n2n1 [Example 76, (R)-2,5,7-trimethyl-6-((1-(2-(4-((4-methylpiperazin-1-yl)methyl)phenyl)pyrimidin-5-yl)pyrrolidin-3-yl)oxy)-[1,2,4]triazolo[1,5-a]pyrimidine]
5 | 0.000501 | > 25.1 |  | Cc1nc2nc(C)c(C[C@@H]3CCN(c4cnc(-c5ccc(CN6C[C@@H](C)N(C)C[C@@H]6C)cc5)cn4)C3)c(C)n2n1 [Example 36, 2,5,7-trimethyl-6-(((R)-1-(5-(4-(((2S,5R)-2,4,5-trimethylpiperazin-1-yl)methyl)phenyl)pyrazin-2-yl)pyrrolidin-3-yl)methyl)-[1,2,4]triazolo[1,5-a]pyrimidine]
6 | 0.00158 | > 25.1 | 0.0631 | Cc1nc2nc(C)c(C[C@@H]3CCN(c4cnc(-c5ccc(CN6CCN(C)C[C@H]6C)cc5)cn4)C3)c(C)n2n1 [Example 34, 6-(((R)-1-(5-(4-(((R)-2,4-dimethylpiperazin-1-yl)methyl)phenyl)pyrazin-2-yl)pyrrolidin-3-yl)methyl)-2,5,7-trimethyl-[1,2,4]triazolo[1,5-a]pyrimidine]
7 |  | > 25.1 |  | Cc1nc2nc(C)c(O[C@@H]3CCN(c4ccc(-c5ccc(CN6CCN(C)CC6)nn5)cc4)C3)c(C)n2n1 [Example 65, (R)-2,5,7-trimethyl-6-((1-(4-(6-((4-methylpiperazin-1-yl)methyl)pyridazin-3-yl)phenyl)pyrrolidin-3-yl)oxy)-[1,2,4]triazolo[1,5-a]pyrimidine]
8 | 0.000501 | > 25.1 | 0.0158 | Cc1nc2nc(C)c(C[C@@H]3CCN(c4cnc(-c5ccc(CN6CCN(C)C[C@@H]6C)cc5)cn4)C3)c(C)n2n1 [Example 50, 6-(((R)-1-(5-(4-(((S)-2,4-dimethylpiperazin-1-yl)methyl)phenyl)pyrazin-2-yl)pyrrolidin-3-yl)methyl)-2,5,7-trimethyl-[1,2,4]triazolo[1,5-a]pyrimidine]
9 | 0.002 | > 25.1 | 0.0631 | Cc1nc2nc(C)c(O[C@@H]3CCN(c4ccc(-c5ccc(CN6CCN7CCC[C@@H]7C6)nn5)cc4)C3)c(C)n2n1 [Example 67, 6-(((R)-1-(4-(6-(((R)-hexahydropyrrolo[1,2-a]pyrazin-2(1H)-yl)methyl)pyridazin-3-yl)phenyl)pyrrolidin-3-yl)oxy)-2,5,7-trimethyl-[1,2,4]triazolo[1,5-a]pyrimidine]
10 |  | > 25.1 |  | Cc1nc2nc(C)c(C[C@@H]3CCN(c4cnc(-c5ccc(CN6CCN(C)CC6)cc5)cn4)C3)c(C)n2n1 [Example 59, (R)-2,5,7-trimethyl-6-((1-(5-(4-((4-methylpiperazin-1-yl)methyl)phenyl)pyrazin-2-yl)pyrrolidin-3-yl)methyl)-[1,2,4]triazolo[1,5-a]pyrimidine]
11 | 0.000631 | > 25.1 | 0.0158 | Cc1nc2nc(C)c(C[C@@H]3CCN(c4cnc(-c5ccc(CN6C[C@@H](C)N(C)C[C@H]6C)cc5)cn4)C3)c(C)n2n1 [Example 35, 2,5,7-trimethyl-6-(((R)-1-(5-(4-(((2R,5R)-2,4,5-trimethylpiperazin-1-yl)methyl)phenyl)pyrazin-2-yl)pyrrolidin-3-yl)methyl)-[1,2,4]triazolo[1,5-a]pyrimidine]
12 |  | > 25.1 |  | CC(=O)N1CCN(Cc2ccc(-c3ccc(N4CC[C@@H](Oc5c(C)nc6nc(C)nn6c5C)C4)cc3)nn2)CC1 [Example 71, (R)-1-(4-((6-(4-(3-((2,5,7-trimethyl-[1,2,4]triazolo[1,5-a]pyrimidin-6-yl)oxy)pyrrolidin-1-yl)phenyl)pyridazin-3-yl)methyl)piperazin-1-yl)ethan-1-one]
13 | 0.000631 |  | 0.0251 | Cc1nc2nc(C)c(C[C@@H]3CCN(c4ccc(-c5ccc(CN6CCN(C)CC6)cc5)nc4)C3)c(C)n2n1 [Example 8, (R)-2,5,7-trimethyl-6-((1-(6-(4-((4-methylpiperazin-1-yl)methyl)phenyl)pyridin-3-yl)pyrrolidin-3-yl)methyl)-[1,2,4]triazolo[1,5-a]pyrimidine]
14 | 0.00251 | > 25.1 | 0.0794 | CCN1CCN(Cc2ccc(-c3ccc(N4CC[C@@H](Oc5c(C)nc6nc(C)nn6c5C)C4)cc3)nn2)CC1 [Example 72, (R)-6-((1-(4-(6-((4-ethylpiperazin-1-yl)methyl)pyridazin-3-yl)phenyl)pyrrolidin-3-yl)oxy)-2,5,7-trimethyl-[1,2,4]triazolo[1,5-a]pyrimidine]
15 | 0.00316 |  | 0.0501 | COc1cc(CN2CCN(C)CC2)ccc1-c1ncc(N2CC[C@@H](Cc3c(C)nc4nc(C)nn4c3C)C2)nc1C [Example 31, (R)-6-((1-(5-(2-methoxy-4-((4-methylpiperazin-1-yl)methyl)phenyl)-6-methylpyrazin-2-yl)pyrrolidin-3-yl)methyl)-2,5,7-trimethyl-[1,2,4]triazolo[1,5-a]pyrimidine]
16 | 0.000501 | > 20 | 0.0158 | Cc1nc2nc(C)c(C[C@@H]3CCN(c4ccc(-c5ccc(CN6CCOCC6)nn5)nc4)C3)c(C)n2n1 [Example 9, (R)-4-((6-(5-(3-((2,5,7-trimethyl-[1,2,4]triazolo[1,5-a]pyrimidin-6-yl)methyl)pyrrolidin-1-yl)pyridin-2-yl)pyridazin-3-yl)methyl)morpholine]
17 | 0.00316 | > 25.1 | 0.1 | Cc1nc2nc(C)c(O[C@@H]3CCN(c4ccc(-c5ccc(CN6CCN7CCC[C@H]7C6)nn5)cc4)C3)c(C)n2n1 [Example 68, 6-(((R)-1-(4-(6-(((S)-hexahydropyrrolo[1,2-a]pyrazin-2(1H)-yl)methyl)pyridazin-3-yl)phenyl)pyrrolidin-3-yl)oxy)-2,5,7-trimethyl-[1,2,4]triazolo[1,5-a]pyrimidine]
